SMILES strings stand for the structures.

Data set [1] in a line: Solubility of N-protected-3-phenylisoserine in the extraction solvents. Format: physicochemical. On the procedure: The same operation as in Example 1 was carried out except that toluene was used instead of tetrahydrofuran as the extraction solvent in the extraction step of Example 1. As a result, (2R,3S)—N-benzoyl-3-phenylisoserine as an intermediate could be hardly extracted into the organic layer. To evaluate the performance of the extraction solvent, solubility of (2R,3S)—N-benzoyl-3-phenylisoserine was investigated for comparison.
The same operation as in Example 1 was carried out except that cyclopentyl methyl ether was used instead of tetrahydrofuran as the extraction solvent in the extraction step of Example 1. As a result, (2R,3S)—N-benzoyl-3-phenylisoserine as an intermediate could be hardly extracted into the organic layer. To evaluate the performance of the extraction solvent, solubility of (2R,3S)—N-benzoyl-3-phenylisoserine was investigated for comparison.
The same operation as in Example 1 was carried out except that methyl-tert-butyl ether was used instead of tetrahydrofuran as the extraction solvent in the extraction step of Example 1. As a result, (2R,3S)—N-benzoyl-3-phenylisoserine as an intermediate could be hardly extracted into the organic layer. To evaluate the performance of the extraction solvent, solubility of (2R,3S)—N-benzoyl-3-phenylisoserine was investigated for comparison.
The same operation as in Example 1 was carried out except that acetonitrile was used instead of tetrahydrofuran as the extraction solvent in the extraction step of Example 1. As a result, (2R,3S)—N-benzoyl-3-phenylisoserine as an intermediate could be hardly extracted into the organic layer. To evaluate the performance of the extraction solvent, solubility of (2R,3S)—N-benzoyl-3-phenylisoserine was investigated for comparison.

Assay in data set [2]: as above
Format: physicochemical. To be noted: solvent 1,2-dimethoxyethane.

[3] abbreviates: solvent cyclopentyl methyl ether.
Setting [4] is: solvent methyl-tert-butyl ether.

As to `O=C(N[C@@H](c1ccccc1)[C@@H](O)C(=O)O)c1ccccc1` [(2R,3S)—N-benzoyl-3-phenylisoserine], the “Solubility (20° C.)” value in data set [1] (solvent acetonitrile) is 2.2 wt %; in data set [1] (setting [3]), 0.4 wt %; in data set [1] (setting [4]), 0.2 wt %; in data set [1] (solvent tetrahydrofuran), 9.2 wt %; in data set [1] (solvent toluene), under 0.1 wt %; in data set [2] (20° C.), 12.7 wt %. In addition, the “Solubility (40° C.)” value in data set [1] (solvent acetonitrile) is listed as 2.9 wt %; in data set [1] (setting [3]) it was 0.4 wt %; in data set [1] (setting [4]), 0.4 wt %; in data set [1] (solvent tetrahydrofuran) it was 11.6 wt %; in data set [1] (solvent toluene) it was under 0.1 wt %; in data set [2] (40° C.), 13.6 wt %.

Molecule `COC(=O)[C@H](O)[C@@H](NC(=O)c1ccccc1)c1ccccc1` [Example 1, (2R,3S)—N-benzoyl-3-phenylisoserine methyl ester] displayed a melting point of 183 to 185 °C.

On to `COC(=O)[C@H](O)[C@@H](NC(=O)OC(C)(C)C)c1ccccc1` [Example 2, (2R,3S)—N-tert-butoxycarbonyl-3-phenylisoserine methyl ester], for which the melting point fell in the range of 131 to 133 °C.

With `CC(C)(C)OC(=O)NC(c1ccccc1)C(O)C(=O)O` (stereo not shown) [N-tert-butoxycarbonyl-3-phenylisoserine], in data set [1] (solvent tetrahydrofuran), the “Solubility (20° C.)” value is listed as 10.1 wt % and the “Solubility (40° C.)” value was 12.2 wt %.

The values above are taken from patent publication US10087139B2, “3-Phenylisoserine derivative production method” (Toray Fine CHhemicals Co., Ltd., priority 2015, dated 2018).
